# According to patent publication US11247987B2, “Inhibiting ubiquitin specific peptidase 30” (FORMA Therapeutics, Inc., priority 2017, dated 2022):
# Target: T1, human recombinant USP30 (Homo sapiens, UniProt Q70CQ3)
# T1 construct: purchased Boston Biochem E-582
# T1 sequence (Q70CQ3 1-517): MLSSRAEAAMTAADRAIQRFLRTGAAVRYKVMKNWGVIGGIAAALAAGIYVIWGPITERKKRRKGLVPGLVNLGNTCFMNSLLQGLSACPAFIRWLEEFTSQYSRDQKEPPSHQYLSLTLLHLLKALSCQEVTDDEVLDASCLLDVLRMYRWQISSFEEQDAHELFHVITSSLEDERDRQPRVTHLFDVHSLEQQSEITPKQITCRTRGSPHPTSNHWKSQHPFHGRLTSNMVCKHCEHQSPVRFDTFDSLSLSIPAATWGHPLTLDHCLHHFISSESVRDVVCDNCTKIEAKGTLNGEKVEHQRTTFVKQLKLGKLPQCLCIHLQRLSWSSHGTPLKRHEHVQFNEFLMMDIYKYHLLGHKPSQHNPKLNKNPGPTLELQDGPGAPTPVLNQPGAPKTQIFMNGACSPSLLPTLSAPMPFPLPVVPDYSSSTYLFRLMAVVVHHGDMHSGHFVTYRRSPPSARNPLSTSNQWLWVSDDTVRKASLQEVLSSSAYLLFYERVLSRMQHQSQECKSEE
# Experiment: Ubiquitin-Rhodamine 110 Assay for USP30 Activity (USP30 Inhibitor Biochemical Assay)
# Conditions: 0.2 nM USP30, 25 nM Ub-Rh110, 30 min preincubation, 30 min at room temperature; read-out: USP30 potency range (USP30 biochemical IC50 assay, IC50 ranges)
# In short: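 Human recombinant USP30 (0.2 nM final) was preincubated 30 min with compound (25 μM to 1.3 nM, 10-point) in Tris pH 8.0, 1 mM GSH, BGG and Triton X-100. Ub-Rh110 was then added for 30 min at room temperature and stopped with citric acid. Fluorescence at 485/535 nm gave % inhibition and a 4-parameter IC50 fit.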
row,Compound,IC50 [µM]
1,"N#CN[C@H]1CCC[C@H]1C(=O)Nc1ncc(C2CCCCC2)s1 [Compound 10-7, (1R,2S)-2-(cyanoamino)-N-(5-cyclohexyl-1,3-thiazol-2-yl)cyclopentane-1-carboxamide]",1 to 10
2,"N#CN[C@@H]1CCC[C@@H]1C(=O)Nc1ncc(C2CCCCC2)s1 [Compound 10-8, (1S,2R)-2-(cyanoamino)-N-(5-cyclohexyl-1,3-thiazol-2-yl)cyclopentane-1-carboxamide]",1 to 10
3,"N#CN[C@H]1CCC[C@@H]1C(=O)Nc1ncc(C2CCCCC2)s1 [Compound 10-9, (1S,2S)-2-(cyanoamino)-N-(5-cyclohexyl-1,3-thiazol-2-yl)cyclopentane-1-carboxamide]",1 to 10
4,"N#CN[C@H]1CC[C@H](C(=O)Nc2ncc(C3CCOCC3)s2)C1 [Compound 10-10, (1S,3S)-3-(cyanoamino)-N-[5-(oxan-4-yl)-1,3-thiazol-2-yl]cyclopentane-1-carboxamide]",1 to 10
5,"N#CN[C@@H]1CC[C@@H](C(=O)Nc2ncc(C3CCOCC3)s2)C1 [Compound 10-11, (1R,3R)-3-(cyanoamino)-N-[5-(oxan-4-yl)-1,3-thiazol-2-yl]cyclopentane-1-carboxamide]",10 to 25
6,"N#CN[C@H]1CC[C@@H](C(=O)Nc2ncc(-c3ccccc3)s2)C1 [Compound 12-1, (1R,3S)-3-(cyanoamino)-N-(5-phenyl-1,3-thiazol-2-yl)cyclopentane-1-carboxamide]",1 to 10
7,"N#CN[C@H]1CC[C@H](C(=O)Nc2ccn(-c3ccccc3)n2)C1 [Compound 12-2, (1S,3S)-3-(cyanoamino)-N-(1-phenyl-1H-pyrazol-3-yl)cyclopentane-1-carboxamide]",10 to 25
8,"N#CN[C@H]1CC[C@H](C(=O)Nc2ncc(C3CCCCC3)s2)C1 [Compound 12-3, (1S,3S)-3-(cyanoamino)-N-(5-cyclohexyl-1,3-thiazol-2-yl)cyclopentane-1-carboxamide]",0.1 to 1
9,"N#CN[C@H]1CC[C@H](C(=O)Nc2ncc(-c3ccccc3)s2)C1 [Compound 12-4, (1S,3S)-3-(cyanoamino)-N-(5-phenyl-1,3-thiazol-2-yl)cyclopentane-1-carboxamide]",1 to 10
10,"N#CN[C@H]1CC[C@H](C(=O)Nc2ccc3c(c2)CCC3)C1 [Compound 12-5, (1S,3S)-3-(cyanoamino)-N-(2,3-dihydro-1H-inden-5-yl)cyclopentane-1-carboxamide]",10 to 25
11,"N#CN[C@H]1CC[C@H](C(=O)N2CCN(c3ccccc3)CC2)C1 [Compound 12-6, {[(1S,3S)-3-(4-phenylpiperazine-1-carbonyl)cyclopentyl]amino}carbonitrile]",> 25
12,"CC(C)(C)c1cnc(NC(=O)[C@H]2CC[C@@H](NC#N)C2)s1 [Compound 12-7, (1S,3R)-N-(5-tert-butyl-1,3-thiazol-2-yl)-3-(cyanoamino)cyclopentane-1-carboxamide]",1 to 10
13,"N#CN[C@H]1CCN(C(=O)c2csc(-c3cccc(Cl)c3Cl)n2)C1 [Compound 12-8, {[(3S)-1-[2-(2,3-dichlorophenyl)-1,3-thiazole-4-carbonyl]pyrolidin-3-yl]amino}carbonitrile]",1 to 10
14,"N#CNC1CCN(C(=O)c2csc(-c3ccc(Cl)cc3Cl)n2)CC1 [Compound 12-9, ({1-[2-(2,4-dichlorophenyl)-1,3-thiazole-4-carbonyl]piperidin-4-yl}amino)carbonitrile]",1 to 10
